Assay results: the NIST ThermoML archive (doi:10.1021/je100774p)
Numbers after ± are expanded uncertainties.

Assay: mn = molality of the nth substance listed, in mol/kg
Conditions: 101 kPa, Liquid; for viscosity: Capillary tube (Ostwald / Ubbelohde) method

O=C(O)c1cccnc1 [3-carboxylpyridine] + O
Conditions | mass density, 293.15 K [kg/m3] | mass density, 298.15 K [kg/m3] | mass density, 303.15 K [kg/m3] | mass density, 308.15 K [kg/m3] | mass density, 313.15 K [kg/m3] | viscosity, 293.15 K [mPa·s] | viscosity, 298.15 K [mPa·s] | viscosity, 303.15 K [mPa·s] | viscosity, 308.15 K [mPa·s] | viscosity, 313.15 K [mPa·s]
m1 = 0.004283 | 998.41 ± 0.16 | 997.22 ± 0.16 | 995.82 ± 0.16 | 994.28 ± 0.17 | 992.41 ± 0.17 | 1.004 ± 0.008 | 0.8912 ± 0.007 | 0.7981 ± 0.0061 | 0.7201 ± 0.0055 | 0.6538 ± 0.0051
m1 = 0.006512 | 998.5 ± 0.16 | 997.3 ± 0.16 | 995.95 ± 0.16 | 994.35 ± 0.16 | 992.59 ± 0.17 | 1.005 ± 0.008 | 0.8917 ± 0.007 | 0.7985 ± 0.0061 | 0.7205 ± 0.0055 | 0.6543 ± 0.0051
m1 = 0.008188 | – | – | – | – | – | 1.006 ± 0.008 | 0.8923 ± 0.007 | 0.7989 ± 0.0061 | 0.7211 ± 0.0055 | 0.6547 ± 0.0051
m1 = 0.00819 | 998.57 ± 0.16 | 997.41 ± 0.16 | 996.01 ± 0.16 | 994.4 ± 0.16 | 992.64 ± 0.16 | – | – | – | – | –
m1 = 0.01628 | 998.83 ± 0.16 | 997.73 ± 0.16 | 996.31 ± 0.16 | 994.75 ± 0.16 | 992.98 ± 0.16 | 1.007 ± 0.008 | 0.8941 ± 0.007 | 0.8005 ± 0.0062 | 0.7224 ± 0.0055 | 0.6561 ± 0.0051
m1 = 0.03262 | 999.56 ± 0.16 | 998.36 ± 0.16 | 996.97 ± 0.16 | 995.44 ± 0.16 | 993.51 ± 0.16 | 1.011 ± 0.008 | 0.8978 ± 0.007 | 0.8035 ± 0.0062 | 0.7254 ± 0.0055 | 0.6588 ± 0.0051
m1 = 0.04903 | 1000.25 ± 0.16 | 999.09 ± 0.16 | 997.72 ± 0.16 | 996.14 ± 0.16 | 994.22 ± 0.17 | 1.015 ± 0.008 | 0.9012 ± 0.007 | 0.8067 ± 0.0062 | 0.7282 ± 0.0055 | 0.661 ± 0.0051
m1 = 0.06555 | 1000.89 ± 0.16 | 999.71 ± 0.16 | 998.32 ± 0.16 | 996.72 ± 0.16 | 994.91 ± 0.16 | 1.018 ± 0.008 | 0.9039 ± 0.007 | 0.8098 ± 0.0062 | 0.7312 ± 0.0056 | 0.6639 ± 0.0051
m1 = 0.0821 | 1001.66 ± 0.16 | 1000.45 ± 0.16 | 999.03 ± 0.16 | 997.41 ± 0.16 | 995.56 ± 0.16 | 1.022 ± 0.008 | 0.9074 ± 0.0071 | 0.8127 ± 0.0062 | 0.7338 ± 0.0056 | 0.6662 ± 0.0052
m1 = 0.09871 | 1002.29 ± 0.16 | 1001.09 ± 0.16 | 999.67 ± 0.16 | 998.05 ± 0.16 | 996.21 ± 0.16 | 1.026 ± 0.008 | 0.9109 ± 0.0071 | 0.8158 ± 0.0063 | 0.7364 ± 0.0056 | 0.6686 ± 0.0052
m1 = 0.1154 | 1003.05 ± 0.16 | 1001.8 ± 0.16 | 1000.33 ± 0.16 | 998.71 ± 0.16 | 996.84 ± 0.16 | 1.029 ± 0.008 | 0.9144 ± 0.0071 | 0.8192 ± 0.0063 | 0.7395 ± 0.0056 | 0.6713 ± 0.0052
m1 = 0.1321 | 1003.75 ± 0.16 | 1002.51 ± 0.16 | 1001.03 ± 0.16 | 999.39 ± 0.16 | 997.49 ± 0.16 | 1.033 ± 0.008 | 0.9178 ± 0.0071 | 0.8225 ± 0.0063 | 0.742 ± 0.0056 | 0.6742 ± 0.0052

O [water] + O=C(O)c1cccnc1
m2 = 0
Conditions | viscosity [mPa·s]
293.15 K | 1.003 ± 0.008
298.15 K | 0.8904 ± 0.0069
303.15 K | 0.7973 ± 0.0061
308.15 K | 0.7194 ± 0.0055
313.15 K | 0.653 ± 0.0051
